Experiments:
[1] = test system: lesions of papillomatous digital dermatitis (PDD); test: Effect of various treatments on lesions of papillomatous digital dermatitis in Holstein cows; assay type: in vivo; details: for No. of cows assessed: Responded / No. of lesions assessed: Responded: complete therapeutic response, assessed at post-treatment days 7, 14 and 21, herds 5 to 7; for Mean therapeutic response time: determined by desiccation and keratinization of surfaces and absence of pain
Procedure: (§1) The effect of various treatments was assessed on a total of 72 lesions of PDD in 35 cows in […] (herds 4 and 5-7). Treatments consisted of procaine penicillin G (G. C. Hanford Manufacturing Co., Syracuse, N.Y.), 18,000 units/kg IM BID for 3 days (7 cows); ceftiofur sodium (Naxcel®, The Upjohn Co., Kalamazoo, Mich.), 2 mg/kg daily for 3 days (14 cows); oxytetracycline (Terramycin—343®Pfizer Animal Health, N.Y.), single topical application of approximately 5 g of soluble powder bandaged directly onto a clean lesion for 7 days (3 cows); formadelhyde (Fisher Scientific, Pittsburg, Pa.), 39% v/v, single topical application (5 cows); hydrochloric acid (Fisher Scientific, Pittsburg, Pa.), 36% v/v, single topical application (4 cows); surgical excision (4 cows); and chlorodifluoromethane, dimethylether (Brand Spray, Stockman Products Ltd., Castledown, Isle of Man, UK), 2 minutes of topical cryogenic spray until lesion and margin were frozen solid and white (1 cow). Two cows which received no, treatment served as untreated controls. Therapeutic response was assessed at post treatment days: 7 (4 cows), 7 and 14 (23 cows) and 7, 14 and 21 (7 cows). Therapeutic response was considered complete if there was entire transformation of moist, red, raw, prone-to-bleed, painful surfaces to dry, dark brown, firm, rubbery, keratinacious, non-painful surfaces adherent to underlying pink healthy-appearing skin. […] Another 6 lesions of PDD in 4 cows in herd 4 were reexamined 5 weeks after total surgical excision.

[2] = test system: lesions of papillomatous digital dermatitis (PDD); test: Prevalence of recurrent and new PDD lesions at follow-up examination of treated cows; assay type: in vivo, Holstein cows; details: for Recurrence and new-lesion development (in words): 7-12 weeks after complete response; for New: Cows n / New: Lesions n: lesion at a previously non-affected site; for New: Cows n / New: Lesions n / Recurrent: Cows n / Recurrent: Lesions n: cows that completely responded 7-12 weeks before follow-up; for Recurrent: Cows n / Recurrent: Lesions n: recurrence at a previously responsive affected site
Procedure: as §1

Molecule	No. of cows assessed: Responded [1]	No. of lesions assessed: Responded [1]	Mean therapeutic response time [1]	Incomplete responses, number of cows ([1]; in vivo)	Recurrence and new-lesion development (in words) [2]	New: Cows n [2]	New: Lesions n [2]	Recurrent: Cows n [2]	Recurrent: Lesions n [2]	Therapeutic response of PDD lesions (in words) ([1]; in vivo)
CO/N=C(\C(=O)N[C@@H]1C(=O)N2C(C(=O)O)=C(CSC(=O)c3ccco3)CS[C@H]12)c1csc(N)n1 [Ceftiofur IM, ceftiofur sodium]	13	41	11.1 ± 4.5 days	2 cows	Recurrence and new-lesion-development were observed	2	2	4^|	6	
C=O [Formaldehyde (39%), formadelhyde]	5	8	7 days			0	0	0^	0	
Cl [Hydrochloric acid (35%), hydrochloric acid]	2	3	7 days	2 cows	New lesions occurred	2	3	0^	0	persistence of small painful deep ulcers
CN(C)[C@@H]1C(O)=C(C(N)=O)C(=O)[C@@]2(O)C(O)=C3C(=O)c4c(O)cccc4[C@@](C)(O)[C@H]3[C@H](O)[C@@H]12 [Oxytetracycline, topical, oxytetracycline]	3	4	7 days							
procaine penicillin G [Penicillin G procaine IM]	7	9	8.2 ± 2.5 days		Recurrence and new-lesion-development were observed	2	4	1^|	1	

Source: patent publication US20030086947A1, “Vaccine against papillomatous digital dermatitis (PDD)” (TOWNSEND AND TOWNSEND AND CREW, priority 1997, published 2003)
